From ChEMBL document CHEMBL4334438, “Discovery of novel glycogen synthase kinase-3α inhibitors: Structure-based virtual screening, preliminary SAR and biological evaluation for treatment of acute myeloid leukemia” (Eur J Med Chem, 2019)

How the values were obtained:
[1] = species on record: Homo sapiens; assay: Inhibition of recombinant human BRSK2 S251I mutant (2 to end residues) assessed as residual activity at 1 uM using KKLNRTLSFAEPG substrate incubated for 40 mins in presence of [gamma-33ATP] by scintillation counting based radiometry assay relative to control
[2] = system: Epidermal growth factor receptor (Homo sapiens), P00533 [T790M]; assay: Inhibition of recombinant human EGFR T790M mutant (696 to end residues) assessed as residual activity at 1 uM using poly(Glu, Tyr) 4:1 as substrate at 40 mins in presence of [gamma-33ATP] by scintillation counting based radiometry assay relative to control
[3] = biological target: Wee1-like protein kinase (Homo sapiens) (UniProt P30291); assay: Inhibition of human Wee1 (214 to end residues) assessed as residual activity at 1 uM using LSNLYHQGKFLQTFCGSPLYRRR as substrate measured after 40 mins in presence of [gamma33P]ATP by scintillation counting method relative to control
Wee1-like protein kinase (Homo sapiens), sequence (P30291 whole entry, looked up): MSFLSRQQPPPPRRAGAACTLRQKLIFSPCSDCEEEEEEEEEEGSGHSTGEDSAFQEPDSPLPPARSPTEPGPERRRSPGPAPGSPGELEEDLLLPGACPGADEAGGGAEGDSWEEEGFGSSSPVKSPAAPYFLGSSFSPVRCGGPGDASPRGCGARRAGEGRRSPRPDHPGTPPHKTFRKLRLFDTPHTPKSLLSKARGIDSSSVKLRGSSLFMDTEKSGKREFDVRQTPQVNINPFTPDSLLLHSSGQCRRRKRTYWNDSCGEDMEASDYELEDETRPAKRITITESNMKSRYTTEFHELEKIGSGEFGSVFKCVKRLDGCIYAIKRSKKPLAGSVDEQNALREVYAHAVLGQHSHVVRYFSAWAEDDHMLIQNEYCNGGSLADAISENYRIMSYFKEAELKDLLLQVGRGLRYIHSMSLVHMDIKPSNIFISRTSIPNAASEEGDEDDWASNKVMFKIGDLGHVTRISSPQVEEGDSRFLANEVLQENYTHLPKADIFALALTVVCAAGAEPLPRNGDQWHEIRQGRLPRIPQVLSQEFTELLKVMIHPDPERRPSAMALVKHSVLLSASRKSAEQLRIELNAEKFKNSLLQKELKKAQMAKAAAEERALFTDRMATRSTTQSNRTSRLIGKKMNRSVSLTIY

[4] = biological target: G protein-coupled receptor kinase 6 (Homo sapiens) (UniProt P43250); assay: Inhibition of recombinant full length human GRK6 assessed as residual activity at 1 uM using casein as substrate at 40 mins in presence of [gamma-33ATP] by scintillation counting based radiometry assay relative to control
[5] = biological target: Leukocyte tyrosine kinase receptor (Homo sapiens) (UniProt P29376); assay: Inhibition of recombinant human LTK (450 to end residues) assessed as residual activity at 1 uM using GEEPLYWSFPAKKK as substrate after 40 mins in presence of [gamma-33ATP] by scintillation counting based radiometry assay relative to control
Leukocyte tyrosine kinase receptor (Homo sapiens), sequence (P29376 whole entry): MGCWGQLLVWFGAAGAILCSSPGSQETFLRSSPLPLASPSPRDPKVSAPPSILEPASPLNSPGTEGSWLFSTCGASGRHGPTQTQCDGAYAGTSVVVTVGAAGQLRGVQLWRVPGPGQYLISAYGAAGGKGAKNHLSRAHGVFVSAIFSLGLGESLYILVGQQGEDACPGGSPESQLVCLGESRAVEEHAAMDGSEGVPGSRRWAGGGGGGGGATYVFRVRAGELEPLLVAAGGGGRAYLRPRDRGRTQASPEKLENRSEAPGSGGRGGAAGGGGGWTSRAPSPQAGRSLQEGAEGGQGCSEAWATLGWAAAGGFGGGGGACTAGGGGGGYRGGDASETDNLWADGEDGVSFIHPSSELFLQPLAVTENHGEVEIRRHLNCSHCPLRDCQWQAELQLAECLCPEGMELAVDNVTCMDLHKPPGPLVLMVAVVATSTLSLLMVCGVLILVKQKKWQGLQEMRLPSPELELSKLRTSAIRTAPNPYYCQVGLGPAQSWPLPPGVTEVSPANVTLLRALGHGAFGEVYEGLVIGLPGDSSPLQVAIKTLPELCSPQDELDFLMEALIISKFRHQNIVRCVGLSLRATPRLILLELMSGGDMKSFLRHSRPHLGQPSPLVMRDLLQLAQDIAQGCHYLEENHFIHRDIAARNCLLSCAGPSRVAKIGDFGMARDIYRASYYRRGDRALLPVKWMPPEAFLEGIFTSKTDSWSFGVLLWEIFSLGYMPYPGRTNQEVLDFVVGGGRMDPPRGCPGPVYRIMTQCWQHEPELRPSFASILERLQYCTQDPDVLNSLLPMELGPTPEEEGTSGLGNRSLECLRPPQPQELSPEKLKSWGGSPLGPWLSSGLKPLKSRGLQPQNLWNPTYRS

[6] = biological target: Tyrosine-protein kinase CSK (Homo sapiens) (UniProt P41240); assay: Inhibition of recombinant human CSK assessed as residual activity at 1 uM poly(Glu, Tyr) 4:1 as substrate incubated 40 mins in presence of [gamma-33ATP] by scintillation counting based radiometry assay relative to control
[7] = species on record: Homo sapiens; assay: Inhibition of recombinant full length human PRAK R291E mutant assessed as residual activity at 1 uM using KKLRRTLSVA as substrate measured after 40 mins in presence of [gamma33P]ATP by scintillation counting method relative to control
[8] = system: Angiopoietin-1 receptor (Homo sapiens), Q02763 [Q939H,Q940H,R849W]; assay: Inhibition of human Tie2 Q939H/Q940H/R849W mutant (771 to end residues) assessed as residual activity at 1 uM using EFPIYDFLPAKKK as substrate measured after 40 mins in presence of [gamma33P]ATP by scintillation counting method relative to control
[9] = biological target: NT-3 growth factor receptor (Homo sapiens) (UniProt Q16288); assay: Inhibition of human TrkC (510 to end residues) assessed as residual activity at 1 uM using GEEPLYWSFPAKKK as substrate measured after 40 mins in presence of [gamma33P]ATP by scintillation counting method relative to control
[10] = biological target: Serine/threonine-protein kinase/endoribonuclease IRE1 (Homo sapiens) (UniProt O75460); assay: Inhibition of human IRE1 activated (465 to end residues) assessed as residual activity at 1 uM using myelin basic protein as substrate after 40 mins by [gamma-33ATP] radiometric assay relative to control
Serine/threonine-protein kinase/endoribonuclease IRE1 (Homo sapiens), sequence (O75460 19-977 limits assumed): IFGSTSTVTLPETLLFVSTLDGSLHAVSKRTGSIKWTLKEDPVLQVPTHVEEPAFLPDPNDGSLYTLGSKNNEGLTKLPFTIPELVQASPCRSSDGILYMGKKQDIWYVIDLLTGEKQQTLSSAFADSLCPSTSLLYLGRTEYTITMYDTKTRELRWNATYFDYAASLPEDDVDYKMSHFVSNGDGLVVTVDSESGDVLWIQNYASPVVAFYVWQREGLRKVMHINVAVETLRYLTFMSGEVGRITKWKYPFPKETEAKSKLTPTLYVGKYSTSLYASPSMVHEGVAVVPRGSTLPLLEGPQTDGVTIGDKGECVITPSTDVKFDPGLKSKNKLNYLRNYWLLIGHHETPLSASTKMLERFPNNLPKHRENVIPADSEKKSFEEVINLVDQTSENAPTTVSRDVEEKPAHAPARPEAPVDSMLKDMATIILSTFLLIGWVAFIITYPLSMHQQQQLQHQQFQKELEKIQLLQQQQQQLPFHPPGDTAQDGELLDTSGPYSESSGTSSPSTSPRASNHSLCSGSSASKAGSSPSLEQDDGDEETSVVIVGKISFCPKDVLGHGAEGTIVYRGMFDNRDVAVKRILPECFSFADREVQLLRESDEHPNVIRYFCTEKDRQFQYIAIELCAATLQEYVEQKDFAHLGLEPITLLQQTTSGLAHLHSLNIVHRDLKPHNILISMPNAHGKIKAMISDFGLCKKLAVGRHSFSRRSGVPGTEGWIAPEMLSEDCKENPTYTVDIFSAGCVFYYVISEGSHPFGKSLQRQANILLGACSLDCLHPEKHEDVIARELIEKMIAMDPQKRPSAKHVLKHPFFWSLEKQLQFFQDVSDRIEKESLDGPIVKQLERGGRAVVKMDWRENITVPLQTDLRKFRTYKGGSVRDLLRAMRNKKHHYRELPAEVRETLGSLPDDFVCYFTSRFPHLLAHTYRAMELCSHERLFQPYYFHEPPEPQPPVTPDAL

[11] = system: Glycogen synthase kinase-3 alpha (Homo sapiens), P49840 [UNDEFINED MUTATION]; assay: Inhibition of human GSK-3alpha S449A mutant (2 to end residues) assessed as residual activity at 1 uM using phospho GS2 peptide as substrate after 40 mins by [gamma-33ATP] radiometric assay
[12] = system: Tyrosine-protein kinase BTK (Homo sapiens), Q06187 [R28H]; assay: Inhibition of recombinant full length human BTK R28H mutant assessed as residual activity at 1 uM using LSNLYHQGKFLQTFCGSPLYRRR as substrate incubated for 40 mins in presence of [gamma-33ATP] by scintillation counting based radiometry assay relative to control
[13] = biological target: Serine/threonine-protein kinase pim-2 (Homo sapiens) (UniProt Q9P1W9); assay: Inhibition of recombinant human Pim2 (2 to end residues) assessed as residual activity at 1 uM using RSRHSSYPAGT as substrate measured after 40 mins in presence of [gamma33P]ATP by scintillation counting method relative to control
[14] = biological target: Ephrin type-A receptor 4 (Homo sapiens) (UniProt P54764); assay: Inhibition of recombinant human EphA4 (601 to 892 residues) assessed as residual activity at 1 uM using poly(Glu, Tyr) 4:1 as substrate at 40 mins in presence of [gamma-33ATP] by scintillation counting based radiometry assay relative to control
Ephrin type-A receptor 4 (Homo sapiens), sequence (P54764 whole entry, the tested form may be a part): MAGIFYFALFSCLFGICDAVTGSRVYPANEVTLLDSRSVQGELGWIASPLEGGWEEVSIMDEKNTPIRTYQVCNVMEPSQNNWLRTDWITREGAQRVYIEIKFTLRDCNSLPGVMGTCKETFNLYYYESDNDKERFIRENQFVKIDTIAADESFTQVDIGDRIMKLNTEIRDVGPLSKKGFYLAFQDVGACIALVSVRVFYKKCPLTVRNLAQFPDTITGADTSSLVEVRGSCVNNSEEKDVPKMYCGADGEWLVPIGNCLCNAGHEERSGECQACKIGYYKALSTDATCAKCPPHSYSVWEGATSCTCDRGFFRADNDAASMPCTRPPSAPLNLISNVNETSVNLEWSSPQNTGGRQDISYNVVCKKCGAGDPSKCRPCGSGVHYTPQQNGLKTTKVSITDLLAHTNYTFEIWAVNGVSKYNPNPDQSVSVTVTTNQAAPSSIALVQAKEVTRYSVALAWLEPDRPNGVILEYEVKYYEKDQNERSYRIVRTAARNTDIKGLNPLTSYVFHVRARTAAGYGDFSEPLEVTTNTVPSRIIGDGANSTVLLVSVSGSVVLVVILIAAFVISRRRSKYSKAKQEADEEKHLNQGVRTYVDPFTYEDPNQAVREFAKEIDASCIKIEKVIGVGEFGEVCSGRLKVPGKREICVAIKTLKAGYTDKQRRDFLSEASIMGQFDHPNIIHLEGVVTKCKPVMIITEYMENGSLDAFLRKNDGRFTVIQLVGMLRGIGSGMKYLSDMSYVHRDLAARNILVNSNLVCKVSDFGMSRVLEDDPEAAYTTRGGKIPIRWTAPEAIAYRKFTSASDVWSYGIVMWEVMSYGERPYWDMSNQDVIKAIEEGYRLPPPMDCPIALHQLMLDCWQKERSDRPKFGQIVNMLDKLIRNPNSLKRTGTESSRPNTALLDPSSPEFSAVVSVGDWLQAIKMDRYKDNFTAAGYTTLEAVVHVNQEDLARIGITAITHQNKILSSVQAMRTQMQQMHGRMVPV

[15] = biological target: Mitogen-activated protein kinase kinase kinase 5 (Homo sapiens) (UniProt Q99683); assay: Inhibition of recombinant human ASK1 (649 to 946 residues) assessed as residual activity at 1 uM using myelin basic protein as substrate incubated for 40 mins in presence of [gamma-33ATP] by scintillation counting based radiometry assay relative to control
[16] = biological target: Serine/threonine-protein kinase 38-like (Homo sapiens) (UniProt Q9Y2H1); assay: Inhibition of recombinant human NDR2 (83 to end residues) assessed as residual activity at 1 uM using RSRSRSRSRSRSRSR as substrate measured after 40 mins in presence of [gamma33P]ATP by scintillation counting method relative to control
Serine/threonine-protein kinase 38-like (Homo sapiens), sequence (Q9Y2H1 2-464 limits assumed): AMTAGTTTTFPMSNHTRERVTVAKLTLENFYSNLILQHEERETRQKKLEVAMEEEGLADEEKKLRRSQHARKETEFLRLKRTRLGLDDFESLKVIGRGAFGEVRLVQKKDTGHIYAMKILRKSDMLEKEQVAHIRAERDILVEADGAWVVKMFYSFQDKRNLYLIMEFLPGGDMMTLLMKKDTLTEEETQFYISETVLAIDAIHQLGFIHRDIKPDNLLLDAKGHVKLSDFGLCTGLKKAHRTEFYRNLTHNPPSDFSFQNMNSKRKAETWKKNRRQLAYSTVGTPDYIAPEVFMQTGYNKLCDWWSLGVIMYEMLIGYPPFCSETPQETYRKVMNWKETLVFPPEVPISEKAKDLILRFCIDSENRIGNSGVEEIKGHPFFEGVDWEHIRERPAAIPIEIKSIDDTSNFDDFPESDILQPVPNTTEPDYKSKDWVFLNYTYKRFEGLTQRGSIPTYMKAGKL

[17] = biological target: Ephrin type-B receptor 1 (Homo sapiens) (UniProt P54762); assay: Inhibition of recombinant human EphB1 (564 to end residues) assessed as residual activity at 1 uM using KVEKIGEGTYGVVYK as substrate at 40 mins in presence of [gamma-33ATP] by scintillation counting based radiometry assay relative to control
Ephrin type-B receptor 1 (Homo sapiens), sequence (P54762 whole entry): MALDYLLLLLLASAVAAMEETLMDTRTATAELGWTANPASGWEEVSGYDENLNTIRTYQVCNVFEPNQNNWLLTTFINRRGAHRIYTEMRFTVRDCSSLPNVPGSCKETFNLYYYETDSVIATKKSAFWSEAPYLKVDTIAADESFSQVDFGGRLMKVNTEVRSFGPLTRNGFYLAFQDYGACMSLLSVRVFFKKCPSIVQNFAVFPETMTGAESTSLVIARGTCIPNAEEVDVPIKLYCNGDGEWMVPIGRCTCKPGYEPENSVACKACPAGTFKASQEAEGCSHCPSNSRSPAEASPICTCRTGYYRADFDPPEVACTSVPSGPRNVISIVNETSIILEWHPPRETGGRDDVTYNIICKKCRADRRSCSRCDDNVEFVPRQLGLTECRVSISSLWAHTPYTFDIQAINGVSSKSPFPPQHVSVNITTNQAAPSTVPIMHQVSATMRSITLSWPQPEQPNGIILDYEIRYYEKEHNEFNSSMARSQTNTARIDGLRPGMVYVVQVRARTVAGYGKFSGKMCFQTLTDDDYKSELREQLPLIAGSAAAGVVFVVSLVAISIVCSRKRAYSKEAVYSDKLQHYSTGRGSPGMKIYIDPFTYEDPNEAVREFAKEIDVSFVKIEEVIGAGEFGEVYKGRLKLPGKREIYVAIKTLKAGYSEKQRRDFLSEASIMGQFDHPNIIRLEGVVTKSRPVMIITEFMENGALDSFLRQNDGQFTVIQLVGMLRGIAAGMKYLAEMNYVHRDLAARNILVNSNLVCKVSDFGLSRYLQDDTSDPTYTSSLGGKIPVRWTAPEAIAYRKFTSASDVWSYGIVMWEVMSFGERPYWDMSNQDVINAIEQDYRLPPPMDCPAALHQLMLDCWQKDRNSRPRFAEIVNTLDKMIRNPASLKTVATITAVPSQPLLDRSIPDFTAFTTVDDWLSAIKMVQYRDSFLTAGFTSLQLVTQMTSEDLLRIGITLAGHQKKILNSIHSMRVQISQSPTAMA

[18] = biological target: Platelet-derived growth factor receptor beta (Homo sapiens) (UniProt P09619); assay: Inhibition of human PDGFRbeta (557 to end residues) assessed as residual activity at 1 uM using poly(Glu, Tyr) 4:1 as substrate measured after 40 mins in presence of [gamma33P]ATP by scintillation counting method relative to control
[19] = biological target: Proto-oncogene tyrosine-protein kinase Src (Homo sapiens) (UniProt P12931); assay: Inhibition of recombinant human C-Src assessed as residual activity at 1 uM KVEKIGEGTYGVV as substrate incubated 40 mins in presence of [gamma-33ATP] by scintillation counting based radiometry assay relative to control
[20] = biological target: Serine/threonine-protein kinase haspin (Homo sapiens) (UniProt Q8TF76); assay: Inhibition of human Haspin (471 to end residues ) assessed as residual activity at 1 uM using RARTLSFAEPG as substrate after 40 mins by [gamma-33ATP] radiometric assay relative to control
[21] = biological target: Mitogen-activated protein kinase 12 (Homo sapiens) (UniProt P53778); assay: Inhibition of recombinant human full length SAPK3 assessed as residual activity at 1 uM using myelin basic protein as substrate measured after 40 mins in presence of [gamma33P]ATP by scintillation counting method relative to control
[22] = biological target: Inhibitor of nuclear factor kappa-B kinase subunit epsilon (Homo sapiens) (UniProt Q14164); assay: Inhibition of full length human IKKepsilon assessed as residual activity at 1 uM using casein as substrate after 40 mins by [gamma-33ATP] radiometric assay relative to control

Compound	Activity [1]	Activity [2]	Activity [3]	Activity [4]	Activity [5]	Activity [6]	Activity [7]	Activity [8]	Activity [9]	Activity [10]	Activity [11]	Activity [12]	Activity [13]	Activity [14]	Activity [15]	Activity [16]	Activity [17]	Activity [18]	Activity [19]	Activity [20]	further results
C=CCOC(=O)c1cc(-c2ccc(/C=C3/NC(=S)NC3=O)o2)ccc1Cl	71%	90%	106%	104%	104%	102%	82%	105%	98%	91%	10%	101%	10%	98%	102%	118%	102%	108%	79%	87%	Activity [21]: 94%; Activity [22]: 98%
N=C1NC(=O)/C(=C\c2ccc(-c3cccc([N+](=O)[O-])c3)o2)S1	42%	101%	103%	102%	114%	96%	71%	91%	104%	79%	8%	94%	6%	103%	101%	92%	115%	103%	82%	59%	Activity [21]: 97%; Activity [22]: 100%
